Data: patent US7511047B2, “Kinase inhibitors” (Cytopia Research Pty Ltd, priority 2002, dated 2009)

Key:
Assay type in all cases: biochemical
[1] = target: T1, Jak3 (Homo sapiens, UniProt P52333); experiment: JAK3 kinase domain assay (ELISA or Alphascreen); details: capacity to inhibit 50% of activity at 50 μM; read-out: Jak3 inhibitory activity
T1 construct: The kinase domain of humanJAK3 was amplified from U937mRNA; His tag (from pFastBac HTb vector) (N); made in house; host or cells: baculovirus; Sf9 insect cells for virus, High Five cells for large-scale production
Protocol: (§1) For screening purposes, compounds were diluted in 96 well plates at a concentration of 20 μM. Plates were warmed at 37° C. for 30 minutes before assay.
(§2) • JAK2 PCR products were cloned into the pFastBac HTc expression vector (Gibco) via the Sal I and Not I sites. The JAK2 plasmid was then transformed into competent DH10Bac cells (Gibco), and the recombinant baculovirus produced prepared for transfection into Sf9 insect cells. JAK3 • The kinase domain of humanJAK3 was amplified from U937mRNA using the polymerase chain reaction with the following primers:
• JAK3 PCR products were cloned into the pFastBac HTb expression vector (Gibco) via the Xho I and Kpn I sites. The JAK3 plasmid was then transformed into competent DH10Bac cells (Gibco), and the recombinant baculovirus produced prepared for transfection into Sf9 insect cells. TYK2 • The kinase domain of humanTYK2 was amplified from A549 mRNA using the polymerase chain reaction with the following primers: […]
(§3) Baculovirus preparations from each of the JAK family members were infected into five litres of High Five cells (Invitrogen) grown in High Five serum free medium (Invitrogen) to a cell density of approximately 1-2×10^6 cells/ml. Cells are infected with virus at a MOI of 0.8-3.0. Cells were harvested and lysed. JAK kinase domains were purified by affinity chromatography on a Probond (Invitrogen) nickel chelate affinity column.
(§4) Kinase assays were performed either in a 96 well capture-based ELISA assay or in 384 well Optiplates (Packard) using an Alphascreen Protein Tyrosine Kinase kit. In either casse using approximately 1.5 μg of affinity purified PTK domain in the presence of 50 mM HEPES, pH 7.5, 10 mM MgCl2, 150 mM NaCl and 10 μM-1 mM ATP. The biotinylated substrate biotin-EGPWLEEEEEAYGWMDF-NH2 (SEQ ID NO:9) (final concentration 5 μM) was used as substrate. In the ELISA assay tyrosine phosphorylation was quantitated following transfer to an avidin coated ELISA plate using peroxidase-linked anti-phospho-tyrosine antibody PY20. In the Alphascreen assay, Alphascreen phosphotyrosine acceptor beads followed by streptavidin donor beads were added under subdued light. The ELISA plates were read on a BMG Fluorostar, the Alphascreen plates were read on a Packard Fusion Alpha. Inhibitors were added to the assays fifteen minutes prior to the addition of ATP. Inhibitors were added in aqueous DMSO, with DMSO concentrations never exceeding 1%.

[2] = target: T2, abl (Homo sapiens, UniProt P00519); experiment: abl kinase assay (ELISA or Alphascreen); details: capacity to inhibit 50% of activity at 50 μM; read-out: abl inhibitory activity
T2 sequence (P00519 242-493 limits assumed): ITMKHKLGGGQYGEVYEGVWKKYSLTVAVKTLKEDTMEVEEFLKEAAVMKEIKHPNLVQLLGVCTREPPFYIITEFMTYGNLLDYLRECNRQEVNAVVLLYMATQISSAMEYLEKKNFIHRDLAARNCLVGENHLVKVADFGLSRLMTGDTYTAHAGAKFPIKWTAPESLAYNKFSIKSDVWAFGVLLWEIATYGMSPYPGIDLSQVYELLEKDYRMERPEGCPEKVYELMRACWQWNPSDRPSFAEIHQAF
Protocol: as §1, §4

[3] = target: hck (Homo sapiens, UniProt P08631); experiment: hck kinase assay (ELISA or Alphascreen); details: capacity to inhibit 50% of activity at 50 μM; read-out: hck inhibitory activity
Protocol: as §1, §4

[4] = target: kdr (Homo sapiens, UniProt P35968); experiment: kdr kinase assay (ELISA or Alphascreen); details: capacity to inhibit 50% of activity at 50 μM; read-out: kdr inhibitory activity
Protocol: as §1, §4

[5] = target: T3, Jak2 (Homo sapiens, UniProt O60674); experiment: JAK2 kinase domain assay (ELISA or Alphascreen); details: capacity to inhibit 50% of activity at 50 μM; read-out: Jak2 inhibitory activity
T3 construct: The kinase domain of humanJAK2 was amplified from U937mRNA; His tag (from pFastBac HTc vector) (N); made in house; host or cells: baculovirus; Sf9 insect cells for virus, High Five cells for large-scale production
Protocol: as §1
• JAK1 PCR products were cloned into the pFastBac HTb expression vector (Gibco) via the Xho I and Kpn I sites. The JAK1 plasmid was then transformed into competent DH10Bac cells (Gibco), and the recombinant baculovirus produced prepared for transfection into Sf9 insect cells. JAK2 • The kinase domain of humanJAK2 was amplified from U937mRNA using the polymerase chain reaction with the following primers:
as §2, with “primers: […]” for “primers:”
as §3, §4

T1 sequence (P52333 822-1111 limits assumed): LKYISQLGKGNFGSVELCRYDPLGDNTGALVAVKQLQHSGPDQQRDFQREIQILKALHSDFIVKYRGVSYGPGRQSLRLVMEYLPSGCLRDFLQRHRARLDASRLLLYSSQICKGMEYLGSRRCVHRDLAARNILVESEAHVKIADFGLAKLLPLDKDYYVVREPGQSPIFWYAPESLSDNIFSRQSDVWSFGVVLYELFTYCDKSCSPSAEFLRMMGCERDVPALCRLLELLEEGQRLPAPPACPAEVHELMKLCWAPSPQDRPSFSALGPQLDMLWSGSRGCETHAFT
kdr, sequence (P35968 834-1162 limits assumed, species assumed): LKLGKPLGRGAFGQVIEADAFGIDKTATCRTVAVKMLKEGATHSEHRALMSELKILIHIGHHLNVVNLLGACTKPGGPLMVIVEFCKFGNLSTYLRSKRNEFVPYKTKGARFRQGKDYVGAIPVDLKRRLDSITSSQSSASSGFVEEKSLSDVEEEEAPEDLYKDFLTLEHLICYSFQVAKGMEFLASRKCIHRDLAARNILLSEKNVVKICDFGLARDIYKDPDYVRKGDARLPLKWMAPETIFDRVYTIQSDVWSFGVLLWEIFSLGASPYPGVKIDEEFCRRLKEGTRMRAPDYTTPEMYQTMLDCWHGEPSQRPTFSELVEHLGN
T3 sequence (O60674 849-1124 limits assumed): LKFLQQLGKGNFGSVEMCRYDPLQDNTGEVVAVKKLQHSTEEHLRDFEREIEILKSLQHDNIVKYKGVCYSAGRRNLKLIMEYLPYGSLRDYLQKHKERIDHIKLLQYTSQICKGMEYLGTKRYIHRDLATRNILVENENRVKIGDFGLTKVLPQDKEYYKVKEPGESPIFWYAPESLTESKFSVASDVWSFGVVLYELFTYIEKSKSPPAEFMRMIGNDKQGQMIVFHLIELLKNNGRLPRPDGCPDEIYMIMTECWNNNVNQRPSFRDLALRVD
hck, sequence (P08631 262-515 limits assumed, species assumed): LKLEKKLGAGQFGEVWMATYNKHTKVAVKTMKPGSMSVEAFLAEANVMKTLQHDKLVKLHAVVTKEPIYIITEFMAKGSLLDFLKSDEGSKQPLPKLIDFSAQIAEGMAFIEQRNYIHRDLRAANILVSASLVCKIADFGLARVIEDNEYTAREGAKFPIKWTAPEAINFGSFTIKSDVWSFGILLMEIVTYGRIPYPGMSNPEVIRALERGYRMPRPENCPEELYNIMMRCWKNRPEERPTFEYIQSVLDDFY

inhibition at 50 µM [1] [%]	inhibition at 50 µM [2] [%]	inhibition at 50 µM [3] [%]	inhibition at 50 µM [4] [%]	inhibition at 50 µM [5] [%]	SMILES
< 50	> 50	> 50	> 50	> 50	C[C@H](Nc1cncc(-n2cnc3cc(NS(C)(=O)=O)ccc32)n1)c1ccccc1
< 50	< 50	< 50	< 50	< 50	C[C@@H](Nc1cncc(-n2cnc3ncccc32)n1)c1ccccc1
< 50	> 50	< 50	> 50	> 50	C[C@H](Nc1cncc(-n2cnc3ccc(NC(=O)c4ccncc4)cc32)n1)c1ccccc1
< 50	< 50	> 50	> 50	> 50	CNCCN(C)Cc1ccc2ncn(-c3cncc(NC(C)c4ccc(F)cc4)n3)c2c1 (stereo not drawn)
> 50	> 50	> 50	> 50	> 50	C[C@H](Nc1cncc(-n2cnc3cnccc32)n1)c1ccccc1
> 50	> 50	> 50	< 50	> 50	c1ccc(CNc2cncc(-n3cnc4ccccc43)n2)cc1
< 50	> 50	> 50	> 50	< 50	C[C@H](Nc1cncc(-n2cnc3cc(C(=O)N4CCN(C)CC4)ccc32)n1)c1ccccc1
< 50	> 50	> 50	> 50	> 50	C[C@H](Nc1cncc(-n2cnc3cc(N)ccc32)n1)c1ccccc1
< 50	< 50	> 50	> 50	> 50	CCN(CC)Cc1ccc2ncn(-c3cncc(NC(C)c4ccc(F)cc4)n3)c2c1 (stereo not drawn)
< 50	> 50	> 50	> 50	> 50	C[C@H](Nc1cncc(-n2cnc3cc(C(=O)NCCCn4ccnc4)ccc32)n1)c1ccccc1
> 50	> 50	> 50	> 50	> 50	C[C@H](Nc1cncc(-n2cnc3cc(NC(=O)C(C)(C)C)ccc32)n1)c1ccccc1
< 50	> 50	> 50	> 50	> 50	COCC(=O)Nc1ccc2ncn(-c3cncc(N[C@@H](C)c4ccccc4)n3)c2c1
< 50	> 50	> 50	> 50	> 50	C[C@H](Nc1cncc(-n2cnc3ccccc32)n1)c1ccccc1
< 50	> 50	> 50	< 50	< 50	C[C@H](Nc1cncc(-n2cnc3cc(C(=O)Nc4ccccc4)ccc32)n1)c1ccccc1
> 50	< 50	> 50	< 50	< 50	C[C@H](Nc1cncc(-n2cnc(-c3ccccc3)c2)n1)c1ccccc1
< 50	> 50	> 50	> 50	> 50	C[C@H](Nc1cncc(-n2cnc3ccc(NC(=O)c4cccnc4)cc32)n1)c1ccccc1
> 50	> 50	> 50	> 50	> 50	C[C@H](Nc1cncc(-n2cnc3cc(C(=O)NCCCN4CCOCC4)ccc32)n1)c1ccccc1
< 50	> 50	> 50	< 50	< 50	Cc1cncn1-c1cncc(NCc2ccc(F)cc2)n1
> 50	> 50	> 50	> 50	> 50	C[C@H](Nc1cncc(-n2cnc3cc(NCc4cccnc4)ccc32)n1)c1ccccc1
> 50	< 50	> 50	< 50	< 50	Fc1ccc(CNc2cncc(-n3ccnc3)n2)cc1
> 50	> 50	> 50	> 50	> 50	CNC(=O)c1ccc2ncn(-c3cncc(N[C@@H](C)c4ccccc4)n3)c2c1
< 50	> 50	> 50	> 50	< 50	C[C@H](Nc1cncc(-n2cnc3cc(NC(=O)C4CC4)ccc32)n1)c1ccccc1
< 50	> 50	> 50	> 50	< 50	C[C@H](Nc1cncc(-n2cnc3ccc(C(=O)N4CCOCC4)cc32)n1)c1ccccc1
< 50	> 50	> 50	> 50	> 50	C[C@H](Nc1cncc(-n2cnc3ccc(C(=O)NCCCN4CCOCC4)cc32)n1)c1ccccc1
< 50	> 50	> 50	> 50	> 50	CC(=O)Nc1ccc2ncn(-c3cncc(N[C@@H](C)c4ccccc4)n3)c2c1
< 50	< 50	> 50	> 50	< 50	CC(Nc1cncc(-n2cnc3ccc(CN4CCN(C)CC4)cc32)n1)c1ccc(F)cc1 (stereo not drawn)
> 50	< 50	< 50	> 50	> 50	C[C@H](Nc1cncc(-n2cnc3cc(NS(=O)(=O)c4ccccc4)ccc32)n1)c1ccccc1
< 50	> 50	> 50	< 50	< 50	C[C@H](Nc1cncc(-n2ccnc2)n1)c1ccccc1
< 50	< 50	> 50	> 50	> 50	C[C@H](Nc1cncc(-n2cnc3ccc(NC(=O)c4cnccn4)cc32)n1)c1ccccc1
< 50	> 50	> 50	> 50	> 50	C[C@H](Nc1cncc(-n2cnc3ccc(N)cc32)n1)c1ccccc1
